Assay results taken from patent US10499642B2, “Isoxazoline-substituted benzamides and analogues as insecticides” (SYNGENTA PARTICIPATIONS AG, priority 2015, dated 2019).

Assays:
Assay type in all cases: in vivo
[1] = system: Spodoptera littoralis; assay: Spodoptera littoralis (Egyptian cotton leaf worm) cotton leaf disc test; conditions: foliar, 72 h, read-out: control (at least one of mortality, anti-feedant effect, and growth inhibition)
How it was run: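 Cotton leaf discs on agar were sprayed with aqueous dilutions of 10′000 ppm DMSO stocks, dried and infested with five L1 larvae. Mortality, anti-feedant effect and growth inhibition were scored against untreated samples 3 days after infestation. Control = any of these higher than untreated.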

[2] = system: Plutella xylostella; assay: Plutella xylostella (diamond back moth) artificial diet test; conditions: 120 h, read-out: effect in at least one of the two categories (mortality or growth inhibition)
How it was run: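 Artificial diet treated with aqueous compound solutions made from DMSO stocks, dried, then infested with L2 larvae (10 to 15 per well). Mortality and growth inhibition scored versus untreated controls 5 days after infestation. Application rate 200 ppm.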

[3] = system: Diabrotica Balteata; assay: Diabrotica balteata (corn root worm) maize sprout test; conditions: 96 h, read-out: effect in at least one of the two categories (mortality or growth inhibition)
How it was run: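 Maize sprouts on agar were sprayed with aqueous test solutions made from 10′000 ppm DMSO stocks, dried, then infested with 6 to 10 L2 larvae per well. Mortality and growth inhibition versus untreated samples were assessed 4 days after infestation; application rate 200 ppm.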

[4] = system: Thrips tabaci; assay: Thrips tabaci (onion thrips) sunflower leaf disc test; conditions: foliar, 144 h
Protocol: Thrips tabaci (Onion Thrips):
(§1) Sunflower leaf discs were placed on agar in 24-well microtiter plates and sprayed with aqueous test solutions prepared from 10′000 ppm DMSO stock solutions. After drying the leaf discs were infested with a thrips population of mixed ages. The samples were assessed for mortality 6 days after infestation.

[5] = system: Tetranychus urticae; assay: Tetranychus urticae (two-spotted spider mite) bean leaf disc test; conditions: foliar, 192 h
Protocol: Tetranychus urticae (Two-Spotted Spider Mite):
as §1, with “Bean” for “Sunflower”, “discs” for “discs were placed”, “were” for “and”, “mite” for “thrips”, “on mixed population (mobile stages) 8” for “6”

[6] = system: Myzus persicae; assay: Myzus persicae (green peach aphid) sunflower leaf disc test; conditions: foliar, 144 h
Protocol: Myzus persicae (Green Peach Aphid):
Sunflower leaf discs were placed on agar in a 24-well microtiter plate and sprayed with test solutions at an application rate of 200 ppm. After drying, the leaf discs were infested with an aphid population of mixed ages. After an incubation period of 6 days after treatment, samples were checked for mortality. The following compounds gave at least 80% mortality of Myzus persicae: […]

Cc1cc(C2=NO[C@@](c3cc(Cl)c(F)c(Cl)c3)(C(F)(F)F)C2)ccc1C(=O)NC1CC(OCC(C)C)=NO1 (stereo partly drawn) [Compound A073]
≥ 80%: percent control (mortality, anti-feedant effect or growth inhibition) at 200 ppm [1] | percent effect (mortality or growth inhibition) at 200 ppm [2] | percent effect (mortality or growth inhibition) at 200 ppm [3] | mortality at 200 ppm [4] | mortality at 200 ppm [5] | mortality at 200 ppm [6]

C#CCOC1=NOC(NC(=O)c2ccc(C3=NO[C@@](c4cc(Cl)c(F)c(Cl)c4)(C(F)(F)F)C3)cc2C)C1 (stereo partly drawn) [Compound A074]
≥ 80%: percent control (mortality, anti-feedant effect or growth inhibition) at 200 ppm [1] | percent effect (mortality or growth inhibition) at 200 ppm [2] | percent effect (mortality or growth inhibition) at 200 ppm [3] | mortality at 200 ppm [4] | mortality at 200 ppm [5] | mortality at 200 ppm [6]

Cc1cc(C2=NO[C@@](c3cc(Cl)c(F)c(Cl)c3)(C(F)(F)F)C2)ccc1C(=O)NC1CC(OCC(F)(F)C(F)C(F)(F)F)=NO1 (stereo partly drawn) [Compound A075]
≥ 80%: percent control (mortality, anti-feedant effect or growth inhibition) at 200 ppm [1] | percent effect (mortality or growth inhibition) at 200 ppm [2] | percent effect (mortality or growth inhibition) at 200 ppm [3] | mortality at 200 ppm [4] | mortality at 200 ppm [5] | mortality at 200 ppm [6]

COCCOC1=NOC(NC(=O)c2ccc(C3=NO[C@@](c4cc(Cl)c(F)c(Cl)c4)(C(F)(F)F)C3)cc2C)C1 (stereo partly drawn) [Compound A076]
≥ 80%: percent control (mortality, anti-feedant effect or growth inhibition) at 200 ppm [1] | percent effect (mortality or growth inhibition) at 200 ppm [2] | percent effect (mortality or growth inhibition) at 200 ppm [3] | mortality at 200 ppm [4] | mortality at 200 ppm [5] | mortality at 200 ppm [6]

Cc1cc(C2=NO[C@@](c3cc(Cl)c(F)c(Cl)c3)(C(F)(F)F)C2)ccc1C(=O)NC1CC(OC(C)C)=NO1 (stereo partly drawn) [Compound A077]
≥ 80%: percent control (mortality, anti-feedant effect or growth inhibition) at 200 ppm [1] | percent effect (mortality or growth inhibition) at 200 ppm [2] | percent effect (mortality or growth inhibition) at 200 ppm [3] | mortality at 200 ppm [4] | mortality at 200 ppm [5] | mortality at 200 ppm [6]

Cc1cc(C2=NO[C@@](c3cc(Cl)c(F)c(Cl)c3)(C(F)(F)F)C2)ccc1C(=O)NC1CC(OC2CC2)=NO1 (stereo partly drawn) [Compound A078]
≥ 80%: percent control (mortality, anti-feedant effect or growth inhibition) at 200 ppm [1] | percent effect (mortality or growth inhibition) at 200 ppm [2] | percent effect (mortality or growth inhibition) at 200 ppm [3] | mortality at 200 ppm [4] | mortality at 200 ppm [5] | mortality at 200 ppm [6]

Cc1cc(C2=NO[C@@](c3cc(Cl)c(F)c(Cl)c3)(C(F)(F)F)C2)ccc1C(=O)NC1CC(OC2CCC2)=NO1 (stereo partly drawn) [Compound A079]
≥ 80%: percent control (mortality, anti-feedant effect or growth inhibition) at 200 ppm [1] | percent effect (mortality or growth inhibition) at 200 ppm [2] | percent effect (mortality or growth inhibition) at 200 ppm [3] | mortality at 200 ppm [4] | mortality at 200 ppm [5] | mortality at 200 ppm [6]

C=C(C)COC1=NOC(NC(=O)c2ccc(C3=NO[C@@](c4cc(Cl)c(F)c(Cl)c4)(C(F)(F)F)C3)cc2C)C1 (stereo partly drawn) [Compound A080]
≥ 80%: percent control (mortality, anti-feedant effect or growth inhibition) at 200 ppm [1] | percent effect (mortality or growth inhibition) at 200 ppm [2] | percent effect (mortality or growth inhibition) at 200 ppm [3] | mortality at 200 ppm [4] | mortality at 200 ppm [5] | mortality at 200 ppm [6]

C=C(F)COC1=NOC(NC(=O)c2ccc(C3=NO[C@@](c4cc(Cl)c(F)c(Cl)c4)(C(F)(F)F)C3)cc2C)C1 (stereo partly drawn) [Compound A081]
≥ 80%: percent control (mortality, anti-feedant effect or growth inhibition) at 200 ppm [1] | percent effect (mortality or growth inhibition) at 200 ppm [2] | percent effect (mortality or growth inhibition) at 200 ppm [3] | mortality at 200 ppm [4] | mortality at 200 ppm [5] | mortality at 200 ppm [6]

Cc1cc(C2=NO[C@@](c3cc(Cl)c(F)c(Cl)c3)(C(F)(F)F)C2)ccc1C(=O)NC1CC(OC2COC2)=NO1 (stereo partly drawn) [Compound A082]
≥ 80%: percent control (mortality, anti-feedant effect or growth inhibition) at 200 ppm [1] | percent effect (mortality or growth inhibition) at 200 ppm [2] | percent effect (mortality or growth inhibition) at 200 ppm [3] | mortality at 200 ppm [4] | mortality at 200 ppm [5] | mortality at 200 ppm [6]

Cc1cc(C2=NO[C@@](c3cc(Cl)c(F)c(Cl)c3)(C(F)(F)F)C2)ccc1C(=O)NC1CC(OCC2CC2)=NO1 (stereo partly drawn) [Compound A083]
≥ 80%: percent control (mortality, anti-feedant effect or growth inhibition) at 200 ppm [1] | percent effect (mortality or growth inhibition) at 200 ppm [2] | percent effect (mortality or growth inhibition) at 200 ppm [3] | mortality at 200 ppm [4] | mortality at 200 ppm [5] | mortality at 200 ppm [6]

Cc1cc(C2=NO[C@@](c3cc(Cl)c(F)c(Cl)c3)(C(F)(F)F)C2)ccc1C(=O)NC1CC(OC/C=C/C(F)(F)F)=NO1 (stereo partly drawn) [Compound A084, 4-[(5S)-5-(3,5-dichloro-4-fluoro-phenyl)-5-(trifluoromethyl)-4H-isoxazol-3-yl]-2-methyl-N-[3-[(E)-4,4,4-trifluorobut-2-enoxy]-4,5-dihydroisoxazol-5-yl]benzamide]
≥ 80%: percent control (mortality, anti-feedant effect or growth inhibition) at 200 ppm [1] | percent effect (mortality or growth inhibition) at 200 ppm [2] | percent effect (mortality or growth inhibition) at 200 ppm [3] | mortality at 200 ppm [4] | mortality at 200 ppm [5] | mortality at 200 ppm [6]

CC(C)=CCOC1=NOC(NC(=O)c2ccc(C3=NO[C@@](c4cc(Cl)c(F)c(Cl)c4)(C(F)(F)F)C3)cc2C)C1 (stereo partly drawn) [Compound A085]
≥ 80%: percent control (mortality, anti-feedant effect or growth inhibition) at 200 ppm [1] | percent effect (mortality or growth inhibition) at 200 ppm [2] | percent effect (mortality or growth inhibition) at 200 ppm [3] | mortality at 200 ppm [4] | mortality at 200 ppm [5] | mortality at 200 ppm [6]

Cc1cc(C2=NO[C@@](c3cc(Cl)c(F)c(Cl)c3)(C(F)(F)F)C2)ccc1C(=O)N(C(=O)OC(C)(C)C)C1CC=NO1 (stereo partly drawn) [Compound A086, tert-butyl N-[4-[(5S)-5-(3,5-dichloro-4-fluoro-phenyl)-5-(trifluoromethyl)-4H-isoxazol-3-yl]-2-methyl-benzoyl]-N-(4,5-dihydroisoxazol-5-yl)carbamate]
≥ 80%: percent control (mortality, anti-feedant effect or growth inhibition) at 200 ppm [1] | percent effect (mortality or growth inhibition) at 200 ppm [2] | percent effect (mortality or growth inhibition) at 200 ppm [3] | mortality at 200 ppm [4] | mortality at 200 ppm [5] | mortality at 200 ppm [6]

Cc1cc(C2=NO[C@@](c3cc(Cl)c(F)c(Cl)c3)(C(F)(F)F)C2)ccc1C(=O)NC1CC(CO)=NO1 (stereo partly drawn) [Compound A087, 4-[(5S)-5-(3,5-dichloro-4-fluoro-phenyl)-5-(trifluoromethyl)-4H-isoxazol-3-yl]-N-[3-(hydroxymethyl)-4,5-dihydroisoxazol-5-yl]-2-methyl-benzamide]
≥ 80%: percent control (mortality, anti-feedant effect or growth inhibition) at 200 ppm [1] | percent effect (mortality or growth inhibition) at 200 ppm [2] | percent effect (mortality or growth inhibition) at 200 ppm [3] | mortality at 200 ppm [4] | mortality at 200 ppm [5] | mortality at 200 ppm [6]

Cc1cc(C2=NO[C@@](c3cc(Cl)c(F)c(Cl)c3)(C(F)(F)F)C2)ccc1C(=O)NC1CC(COC=O)=NO1 (stereo partly drawn) [Compound A089]
≥ 80%: percent control (mortality, anti-feedant effect or growth inhibition) at 200 ppm [1] | percent effect (mortality or growth inhibition) at 200 ppm [2] | percent effect (mortality or growth inhibition) at 200 ppm [3] | mortality at 200 ppm [4] | mortality at 200 ppm [5] | mortality at 200 ppm [6]

COCC1=NOC(NC(=O)c2ccc(C3=NO[C@@](c4cc(Cl)c(F)c(Cl)c4)(C(F)(F)F)C3)cc2C)C1 (stereo partly drawn) [Compound A090]
≥ 80%: percent control (mortality, anti-feedant effect or growth inhibition) at 200 ppm [1] | percent effect (mortality or growth inhibition) at 200 ppm [2] | percent effect (mortality or growth inhibition) at 200 ppm [3] | mortality at 200 ppm [4] | mortality at 200 ppm [5] | mortality at 200 ppm [6]
